Measurements reported in patent publication US7737182B2, “Pharmaceuticals for xerosis” (Taisho Pharmaceutical Co., Ltd., priority 2001, dated 2010).

Assays:
prostaglandin D receptor = target: T1, prostaglandin D receptor (Homo sapiens, UniProt Q13258); assay: Antagonism by BW A868C of the suppression of ADP-induced human platelet aggregation; assay type: cell-based; conditions: human PRP, ADP 3 μmol/L
T1 construct: separate the supernatant (PRP, or platelet-rich plasma); endogenous in cells; host or cells: human platelets (platelet-rich plasma from healthy male donors)
T1 sequence (Q13258 1-359): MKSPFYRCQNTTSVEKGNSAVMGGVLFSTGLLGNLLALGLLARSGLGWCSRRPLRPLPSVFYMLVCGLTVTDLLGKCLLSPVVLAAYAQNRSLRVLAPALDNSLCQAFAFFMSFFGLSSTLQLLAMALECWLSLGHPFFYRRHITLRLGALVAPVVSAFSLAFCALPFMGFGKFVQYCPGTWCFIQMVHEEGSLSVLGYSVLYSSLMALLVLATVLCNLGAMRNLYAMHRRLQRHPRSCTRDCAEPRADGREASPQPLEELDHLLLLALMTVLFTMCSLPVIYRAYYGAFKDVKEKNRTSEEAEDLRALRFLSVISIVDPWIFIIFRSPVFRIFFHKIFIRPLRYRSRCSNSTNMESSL
Description: The prostaglandin D receptor selective antagonist used in the test was ((+/−)-3-benzyl-5-(6-carboxyhexyl)-1-(2-cyclohexyl-2-hydroxyethylamino)-hydantoin) (hereunder designated BW A868C) (Sigma-Aldrich Japan K.K.)
BW A868C was diluted with ethanol to final concentrations of 0.03 μmol/L, 0.1 μmol/L, 0.3 μmol/L, 1 μmol/L, 3 μmol/L and 10 μmol/L.
Compound No. 7 and PGD2 were diluted with ethanol to 287 nmol/L and 300 nmol/L, respectively, for subsequent use.
Blood was taken from the cubital veins of human healthy males and sampled into a tube containing 3.13% sodium citrate. The blood sample was centrifuged at 1,000 rpm for 10 minutes at 20° C. to separate the supernatant (PRP, or platelet-rich plasma) and the residue was further centrifuged at 3,000 rpm for 10 minutes at 20° C. to separate the supernatant (PPP, or platelet-poor plasma). The platelet count of PRP was appropriately diluted with PPP to 30×10^4 platelets/μL for subsequent use.
Platelet aggregation was measured with a platelet aggregation measuring instrument (PAM-8C; MC MEDICAL Co., LTD.) by the Born method (Nature, vol. 194, p. 927, 1962). A portion (273 μL) of PRP (for the BW A868C groups, 1 μL of BW A868C was added at varying concentrations) was preincubated at 37° C. for 3 minutes with stirring at 1,000 rpm. After the preincubation, 1 μL of ethanol or a test substance (compound No. 7: final concentration at 95.7 nmol/L; PGD2: final concentration at 1000 nmol/L) was added and the mixture was incubated at 37° C. for 3 minutes with stirring at 1000 rpm. After the incubation, 25 μL of ADP (final concentration at 3 μmol/L) was added to induce platelet aggregation and a maximum percent aggregation for 5 minutes was measured.

[1] = tested on: NC/Nga mice manifesting atopic dermatitis; assay: Spontaneous itch-evoked scratching behavior of NC mice (Test Example 1); assay type: in vivo; conditions: for Inhibition rate (%) (percent itch suppression): 0.2 ml/mouse on dorsal skin, 24-hr scratching counts before vs after; for Efficacy (significance, paired t-test): scratching counts before vs after application
Description: About 20-week old NC/Nga mice each weighing about 30 g and manifesting atopic dermatitis were purchased from SLC and subjected to the following experiment. A magnet was buried in both hind paws of each mouse and by detecting its magnetism, the movement of the paws was measured with an itch measuring system (product of Neuroscience; when the mouse makes an action, the magnets move accordingly and a current flows through the coil; the moving magnets cause a change in the current, which is detected, measured and analyzed). Among the scratching actions, those lasting 1.5 seconds or longer were considered itch-evoked and their number was counted continuously. […] The subsequent 24-hr itch-evoked scratching behavior was measured and the number of itch-evoked scratchings after drug administration was compared with the initial count. The experimental data was processed to calculate the percent itch suppression on the basis of the total 24-hr itch-evoked scratching counts before and after drug application. For significance testing, the itch-evoked scratching counts that were obtained before and after drug application from individual animals in each group treated with a specific concentration of drug were processed by a paired t-test. Percent itch suppression (%)=(itch-evoked scratching count before drug application−itch-evoked scratching count after drug application)×100/itch-evoked scratching count before drug application (Results)

BALB/c male mice [2] = assay: Mouse skin's barrier function, preventive test, TEWL (Test Example 6); assay type: in vivo; conditions: cohabitation with dermatitic NC/Nga mice; 0.01% in ethanol, 100 μL, once a day for 7 days
Description: Six-week-old BALB/c male mice in groups of six were shaven in a rostral dorsolateral area of 4 cm^2 (2 cm×2 cm) with electric clippers and kept in the same cage as NC/Nga mice that had developed dermatitis. From the day next to the start of cohabitation, a solvent (ethanol, 100 μL) or a drug dissolved in the solvent (compound No. 7, PGD2, PGF2α, or PGE1, all being at 0.01% in an amount of 100 μL) was applied to the shaven site for 7 days on once-a-day basis.
On the day next to the seventh application of the solvent or drug, the transepidermal water loss (TEWL) at the same site was measured with Tewameter (TM210 of Courage & Khazawa, Germany) to evaluate the drug's action, with the solvent-applied group being used as the control group.

BALB/c male mice [3] = assay: Mouse skin's barrier function, treatment test, TEWL (Test Example 5); assay type: in vivo; conditions: barrier destroyed with acetone/diethyl ether; 0.01% in ethanol, 100 μL, once a day for 2 days
Description: Six-week-old BALB/c male mice in groups of eight were shaven in a rostral dorsolateral area of 4 cm^2 (2 cm×2 cm) with electric clippers and the shaven area was covered for 60 seconds with an absorbent cotton (2 cm×2 cm) impregnated with a 1:1 liquid mixture of acetone and diethyl ether. This treatment for destroying the skin's barrier function was performed for 3 consecutive days on once-a-day basis. Starting on the day next to completion of the treatment for barrier destruction at day 3, a solvent (ethanol, 100 μL) or a drug dissolved in the solvent (compound No. 7, PGD2, PGF2α, or PGE1, all being at 0.01% in an amount of 100 μL) was applied to the barrier destroyed site for 2 days on once-a-day basis. On the day next to the second application of the solvent or drug, the transepidermal water loss (TEWL) at the same site was measured with Tewameter (TM210 of Courage & Khazawa, Germany) to evaluate the drug's action.

[4] = tested on: NC mice induced to manifest dermatitis; assay: Dermatitis score in dermatitis manifesting NC mouse models (Test Example 2); assay type: in vivo; conditions: 0.1% in 100% ethanol, 200 μl on dorsal back, seven times a week for 4 weeks
Description: By suitably modifying a method known to the skilled artisan (Jpn. J. Pharmacol. 76, 175-183 (1998) Jun Hiroi, et al. Effects of Tacrolimus Hydrate (FK-506) Ointment on Spontaneous Dermatitis in NC/Nga Mice), the following test was conducted in order to confirm the antipruritic effect of compounds of the invention.
Animals: Four-week old SPF NC mice (male) were purchased from Japan SLC; right after their arrival, the SPF NC mice were kept together with dermatitis manifesting male NC mice (older than 20 weeks) for 2 weeks under the following conditions so as to induce itch-evoked scratching behavior. […]
Drug administration: To the dorsal backs of the 20-wk NC mice that were induced to manifest dermatitis as the result of cohabitation with the spontaneous dermatitis manifesting NC mice, 100% ethanol, compound No. 7 (0.01%) dissolved in 100% ethanol or tacrolimus (0.1%) dissolved in 100% ethanol was applied from an Eppendorf pipette in 200-μl doses seven times a week for a period of 4 weeks. […] Dermatitis score: Dermatitic symptoms were observed and measured once a week. […]

[5] = concentration 0.00001% in 100% ethanol

O=C(O)CCCCCCC1C(=O)N(Cc2ccccc2)C(=O)N1NCC(O)C1CCCCC1 (racemic) [BW A868C, ((+/−)-3-benzyl-5-(6-carboxyhexyl)-1-(2-cyclohexyl-2-hydroxyethylamino)-hydantoin)]
concentration of BW A868C with significant antagonism of the platelet aggregation suppressing action of PGD2 (prostaglandin D receptor; PGD2 at 1000 nmol/L): ≥ 0.3 µmol/L | concentration of BW A868C with significant antagonism of the platelet aggregation suppressing action of compound No. 7 (prostaglandin D receptor; compound No. 7 at 95.7 nmol/L): ≥ 0.1 µmol/L

COC(=O)CSCCCC[C@@H]1[C@@H](C#C[C@@H](O)C2CCCCC2)[C@H](O)C[C@H]1Cl [Compound No. 6]
Inhibition rate (%) (percent itch suppression) ([1]; concentration 0.0001% in 100% ethanol): 32.26% | Efficacy (significance, paired t-test) ([1]; concentration 0.0001%): * (*: P < 0.05)

O=C(O)C#CCCCC[C@@H]1[C@@H](C#C[C@@H](O)C2CCCCC2)[C@H](O)C[C@H]1Cl [Compound No. 15]
Inhibition rate (%) (percent itch suppression) ([1]; concentration 0.000001% in 100% ethanol): 34.61% | Efficacy (significance, paired t-test) ([1]; concentration 0.000001%): * (*: P < 0.05)

O=C(O)CSCCSC[C@@H]1[C@@H](C#C[C@@H](O)C2CCCCC2)[C@H](O)C[C@H]1Cl [Compound No. 25]
Inhibition rate (%) (percent itch suppression) [1, 5]: 21.51% | Efficacy (significance, paired t-test) ([1]; concentration 0.00001%): * (*: P < 0.05)

O=C(O)CCCCSC[C@@H]1[C@@H](C#C[C@@H](O)C2CCCCC2)[C@H](O)C[C@H]1Cl [Compound No. 32]
Inhibition rate (%) (percent itch suppression) [1, 5]: 41.76% | Efficacy (significance, paired t-test) ([1]; concentration 0.00001%): ** (**: P < 0.01)

CCCCC[C@H](O)/C=C/[C@H]1[C@H](O)CC(=O)[C@@H]1CCCCCCC(=O)O [PGE1]
transepidermal water loss (TEWL) compared to the control group (BALB/c male mice [2]): significant decrease in TEWL | transepidermal water loss (TEWL) compared to the solvent-applied control group (BALB/c male mice [3]): no significant difference from the control group

CCCCC[C@H](O)/C=C/[C@@H]1[C@@H](C/C=C\CCCC(=O)O)[C@@H](O)C[C@H]1O [PGF2α]
transepidermal water loss (TEWL) compared to the control group (BALB/c male mice [2]): no significant difference from the control group | transepidermal water loss (TEWL) compared to the solvent-applied control group (BALB/c male mice [3]): no significant difference from the control group

C=CC[C@@H]1/C=C(\C)C[C@H](C)C[C@H](OC)[C@H]2O[C@@](O)(C(=O)C(=O)N3CCCC[C@H]3C(=O)O[C@H](/C(C)=C/[C@@H]3CC[C@@H](O)[C@H](OC)C3)[C@H](C)[C@@H](O)CC1=O)[C@H](C)C[C@@H]2OC [tacrolimus, reference compound]
dermatitis score suppressing action compared to the vehicle group [4]: significant dermatitis score suppressing action
